# Laboratory results published in patent US8552049B2, “Pyrazolecarboxamide derivatives and their use as microbiocides” (Syngenta Corp Protection, LLC, priority 2010, dated 2013).
# Key:
# Septoria tritici = assay: Action against Septoria tritici - fungal growth assay; format: cell-based; settings: Zymoseptoria tritici; 0.002% active ingredient, PDB nutrient broth, 24° C., photometrically after 72 hrs
# Procedure: (§1) Action Against Septoria tritici—Fungal Growth Assay Conidia of the fungus from cryogenic storage were directly mixed into nutrient broth (PDB potato dextrose broth). After placing a (DMSO) solution of the test compounds (0.002% active ingredient) into a microtiter plate (96-well format) the nutrient broth containing the fungal spores was added. The test plates were incubated at 24° C. and the inhibition of growth was determined photometrically after 72 hrs. The activity of a compound was expressed as fungal growth inhibition (0=no growth inhibition, ratings of 80% to 99% mean good to very good inhibition, 100%=complete inhibition).
# Mycosphaerella arachidis = assay: Action against Mycosphaerella arachidis (early leaf spot of groundnut) - fungal growth assay; format: cell-based; settings: 0.002% active ingredient, PDB nutrient broth, 24° C., photometrically after 6-7 days
# Procedure: as §1, with “Mycosphaerella arachidis (Early Leaf Spot of Groundnut; Cercospora arachidicola [Anamorph])—Fungal” for “Septoria tritici—Fungal”, “measured” for “determined”, “6-7 days.” for “72 hrs.”, “inhibition). Compounds 1.003 and 1.004 show very good activity in this test (≧80% inhibition).” for “inhibition).”
# [1] = test system: Erysiphe graminis f.sp. tritici; assay: Action against Erysiphe graminis f.sp. tritici (wheat powdery mildew), wheat leaf segments; format: in vivo; settings: Blumeria graminis, foliar, 168 h; wheat leaf segments sprayed with 0.02% active ingredient, assessed 7 days after inoculation; read-out: preventive fungicidal activity (inhibition)
# Procedure: (§2) Action Against Erysiphe graminis f.sp. tritici (Wheat Powdery Mildew) Wheat leaf segments were placed on agar in multiwell plates (24-well format) and sprayed with test solutions (0.02% active ingredient). After drying, the leaf disks were inoculated with a spore suspension of the fungus. After appropriate incubation the activity of a compound was assessed 7 days after inoculation as preventive fungicidal activity.
# Monographella nivalis = assay: Action against Monographella nivalis (snow mould) - fungal growth assay; format: cell-based; settings: 0.002% active ingredient, PDB nutrient broth, 24° C., photometrically after 72 hrs
# Procedure: as §1, with “Monographella nivalis (Anamorph: Fusarium nivale, Microdochium nivale; Snow Mould)—Fungal” for “Septoria tritici—Fungal”, “DMSO-solution” for “(DMSO) solution”, “measured” for “determined”, “hrs” for “hrs. The activity of a compound was expressed as fungal growth inhibition”
# Botrytis cinerea = assay: Action against Botrytis cinerea - fungal growth assay; format: cell-based; settings: 0.002% active ingredient, PDB nutrient broth, 24° C., photometrically after 3-4 days
# Procedure: as §1, with “Against Botrytis cinerea—Fungal” for “Against Septoria tritici—Fungal”, “storage was” for “storage were”, “was measured” for “was determined”, “after 3-4 days.” for “after 72 hrs.”, “inhibition). Compounds 1.003 and 1.004 show very good activity in this test (≧80% inhibition).” for “inhibition).”
# Puccinia recondita [2] = assay: Protective action against Puccinia recondita (brown rust) on wheat leaf segments; format: in vivo; settings: foliar, 192 h, wheat leaf segments sprayed with 0.02% active ingredient, assessed 8 days after inoculation, read-out: preventive fungicidal activity (inhibition)
# Procedure: as §2, with “Protective Action” for “Action”, “Puccinia recondita (Brown Rust) on Wheat” for “Erysiphe graminis f.sp. tritici (Wheat Powdery Mildew)”, “8” for “7”
# Puccinia recondita [3] = assay: Curative action against Puccinia recondita (brown rust) on wheat leaf segments; format: in vivo; settings: foliar, wheat leaf segments sprayed with 0.02% active ingredient one day after inoculation, assessed 8 days after inoculation, read-out: curative fungicidal activity (inhibition)
# Procedure: Curative Action Against Puccinia recondita (Brown Rust) on Wheat Wheat leaf segments were placed on agar in multiwell plates (24-well format) and inoculated with a spore suspension of the fungus. One day after inoculation the leaf segments were sprayed with test solutions (0.02% active ingredient). After appropriate incubation the activity of a compound was assessed 8 days after inoculation as curative fungicidal activity.
# Pyrenophora teres = assay: Action against Pyrenophora teres (net blotch) on barley leaf segments; format: in vivo; settings: foliar, 96 h, barley leaf segments sprayed with 0.02% active ingredient, assessed 4 days after inoculation, read-out: preventive fungicidal activity (inhibition)
# Procedure: as §2, with “Pyrenophora teres (Net Blotch) on Barley Barley” for “Erysiphe graminis f.sp. tritici (Wheat Powdery Mildew) Wheat”, “4” for “7”, “activity. Compounds 1.003 and 1.004 show very good activity in this test (≧80% inhibition).” for “activity.”
Compound,inhibition at 0.002 % strength (Septoria tritici) [%],inhibition at 0.002 % strength (Mycosphaerella arachidis) [%],inhibition at 0.02 % strength [1] [%],inhibition at 0.002 % strength (Monographella nivalis) [%],melting point [°C],inhibition at 0.002 % strength (Botrytis cinerea) [%],inhibition at 0.02 % strength (Puccinia recondita [2]) [%],inhibition at 0.02 % strength (Puccinia recondita [3]) [%],inhibition at 0.02 % strength (Pyrenophora teres) [%]
"CON(C(=O)c1cn(C)nc1C(F)F)C(CF)Cc1c(Cl)cc(Cl)cc1Cl (stereo not drawn) [Compound 1.004, 3-difluoromethyl-1-methyl-1H-pyrazole-4-carboxylic acid [1-fluoromethyl-2-(2,4,6-trichlorophenyl)-ethyl]-methoxy-amide]",≥ 80,≥ 80,≥ 80,≥ 80,117 to 118,≥ 80,≥ 80,≥ 80,≥ 80
"CON(C(=O)c1cn(C)nc1C(F)F)C(CF)Cc1ccc(Cl)cc1Cl (stereo not drawn) [Compound 1.003, 3-difluoromethyl-1-methyl-1H-pyrazole-4-carboxylic acid [2-(2,4-dichloro-phenyl)-1-fluoromethyl-ethyl]-methoxy-amide]",≥ 80,≥ 80,≥ 80,≥ 80,–,≥ 80,≥ 80,≥ 80,≥ 80
"CON(C(=O)c1cn(C)nc1C(F)(F)F)C(CF)Cc1c(Cl)cc(Cl)cc1Cl (stereo not drawn) [Compound 3.004, 1-methyl-3-trifluoromethyl-1H-pyrazole-4-carboxylic acid [1-fluoromethyl-2-(2,4,6-trichlorophenyl)-ethyl]-methoxy-amide]",–,–,–,–,131 to 133,–,–,–,–
